Assay results reported in the NIST ThermoML archive (doi:10.1021/acs.jced.7b00221).

Test: xn = mol fraction of the nth substance listed
Settings: 100 kPa, Liquid; for viscosity: Cone and plate viscometry; for mass density: Vibrating tube method

CCCCCCn1cc[n+](C)c1C.O=[N+]([O-])c1cn[n-]c1 [1-hexyl-2,3-dimethylimidazolium 4-nitropyrazolide] + CCCCCCCCCCCCCC[P+](CCCCCC)(CCCCCC)CCCCCC.O=S(=O)([N-]S(=O)(=O)C(F)(F)F)C(F)(F)F
Settings	mass density, x1 = 0.25 [kg/m3]	mass density, x1 = 0.501 [kg/m3]	mass density, x1 = 0.749 [kg/m3]	viscosity, x1 = 0.098 [mPa·s]	viscosity, x1 = 0.303 [mPa·s]	viscosity, x1 = 0.5 [mPa·s]	viscosity, x1 = 0.7 [mPa·s]	viscosity, x1 = 0.898 [mPa·s]
278.15 K	–	–	–	1280	1562	2212	3692	7584
283.15 K	1081.8	1090.2	1104.2	871	1040	1418	2223	4009
288.15 K	1078.2	1086.7	1100.5	606	707	933	1385	2241
293.15 K	1074.6	1083.2	1097	434	495	636	897	1330
295.15 K	1073.2	1081.7	1095.7	–	–	–	–	–
298.15 K	1071.1	1079.7	1093.6	319	357	447	605	830
303.15 K	1067.5	1076.2	1090.3	239	264	324	422	545
308.15 K	1063.9	1072.7	1086.9	184	200	240	304	373
313.15 K	1060.4	1069.3	1083.5	144	154	182	223	263
318.15 K	1057	1065.9	1080.2	115	121	142	169	192
323.15 K	1053.5	1062.6	1077	93	97	112	131	144
328.15 K	1050	1059.2	1073.7	–	–	–	–	–
333.15 K	1046.5	1055.8	1070.5	–	–	–	–	–
338.15 K	1043	1052.4	1067.2	–	–	–	–	–
343.15 K	1039.5	1049	1064	–	–	–	–	–
348.15 K	1036.1	1045.7	1060.7	–	–	–	–	–
353.15 K	1032.6	1042.3	1057.5	–	–	–	–	–
